Measured values reported in ChEMBL document CHEMBL3352436, “DDD-028: a potent potential non-opioid, non-cannabinoid analgesic for neuropathic and inflammatory pain” (Bioorg Med Chem Lett, 2014).
pKi: −log10 of the molar value. Activity calls are given as the source filed them.

Columns and labels:
[1] = Cmax in CD rat at 27 mg/kg, iv; type: ADME, organism-based; parameters: dose 27 mg/kg, route intravenous; conditions: in vivo
[2] = AUC (0 to t) in CD rat at 27 mg/kg, iv; type: ADME, organism-based; parameters: dose 27 mg/kg, route intravenous; conditions: plasma
[3] = test system: Rattus norvegicus; experiment: Antinociceptive activity in Complete Freund's adjuvant-induced inflammatory pain CD rat model assessed as mechanical hypersensitivity measured as weight bearing capacity at 30 mg/kg, po measured up to 15 mins relative to control; type: functional, organism-based; parameters: dose 30 mg/kg
[4] = Tmax in CD rat at 27 mg/kg, iv; type: ADME, organism-based; parameters: dose 27 mg/kg, route intravenous; conditions: in vivo
[5] = AUC (0 to infinity) in CD rat at 27 mg/kg, iv; type: ADME, organism-based; parameters: time infinity, dose 27 mg/kg, route intravenous; conditions: plasma
[6] = Half life in CD rat at 27 mg/kg, iv; type: ADME, organism-based; parameters: dose 27 mg/kg, route intravenous; conditions: in vivo
[7] = test system: Rattus norvegicus; experiment: Antinociceptive activity in Complete Freund's adjuvant-induced inflammatory pain CD rat model assessed as time required for maximal effect at 30 mg/kg, po relative to control; type: functional
[8] = Elimination rate constant in CD rat at 27 mg/kg, iv; type: ADME, organism-based; parameters: dose 27 mg/kg, route intravenous; conditions: in vivo
[9] = test system: Rattus norvegicus; experiment: Antinociceptive activity in Complete Freund's adjuvant-induced inflammatory pain CD rat model assessed as mechanical hypersensitivity measured as weight bearing capacity at 30 mg/kg, po measured after 15 to 120 mins relative to control; type: functional, organism-based; parameters: dose 30 mg/kg
[10] = test system: Rattus norvegicus; experiment: Toxicity in Complete Freund's adjuvant-induced inflammatory pain CD rat model assessed as sedation at 30 mg/kg, po measured at 2 hrs post dose; type: organism-based; parameters: dose 30 mg/kg, route oral; conditions: in vivo
[11] = AUC (0 to t) in CD1 mouse at 5 mg/kg, po; type: ADME, organism-based; parameters: dose 5 mg/kg, route oral; conditions: plasma
[12] = test system: Mus musculus; experiment: Antinociceptive activity in sciatic nerve chronic constriction injury CD1 mouse model assessed as paw withdrawal threshold at 3.5 umol/kg, po measured at 30 mins (reference value: 0.26 to 0.37 g); type: functional
[13] = test system: Mus musculus; experiment: Antinociceptive activity in sciatic nerve chronic constriction injury CD1 mouse model assessed as paw withdrawal threshold at 1.3 umol/kg administered intrathecally measured at 60 mins (reference value: 0.21 to 0.30 g); type: functional
[14] = test system: Rattus norvegicus; experiment: Toxicity in Complete Freund's adjuvant-induced inflammatory pain CD rat model assessed as sedation at 5 mg/kg, po measured at 2 hrs post dose; type: organism-based; parameters: dose 5 mg/kg, route oral; conditions: in vivo
[15] = test system: Rattus norvegicus; experiment: Antinociceptive activity in Complete Freund's adjuvant-induced inflammatory pain CD rat model assessed as time required for maximal effect at 5 mg/kg, po relative to control; type: functional
[16] = test system: Mus musculus; experiment: Antinociceptive activity in sciatic nerve chronic constriction injury CD1 mouse model assessed as paw withdrawal threshold at 3.5 umol/kg, po measured at 300 mins (reference value: 0.26 to 0.37 g); type: functional
[17] = AUC (0 to infinity) in CD1 mouse at 5 mg/kg, po; type: ADME, organism-based; parameters: time infinity, dose 5 mg/kg, route oral; conditions: plasma
[18] = target: Adenosine receptor A2a (Homo sapiens, UniProt P29274); experiment: Binding affinity to adenosine A2A receptor (unknown origin)
Sequence of Adenosine receptor A2a (P29274 whole entry): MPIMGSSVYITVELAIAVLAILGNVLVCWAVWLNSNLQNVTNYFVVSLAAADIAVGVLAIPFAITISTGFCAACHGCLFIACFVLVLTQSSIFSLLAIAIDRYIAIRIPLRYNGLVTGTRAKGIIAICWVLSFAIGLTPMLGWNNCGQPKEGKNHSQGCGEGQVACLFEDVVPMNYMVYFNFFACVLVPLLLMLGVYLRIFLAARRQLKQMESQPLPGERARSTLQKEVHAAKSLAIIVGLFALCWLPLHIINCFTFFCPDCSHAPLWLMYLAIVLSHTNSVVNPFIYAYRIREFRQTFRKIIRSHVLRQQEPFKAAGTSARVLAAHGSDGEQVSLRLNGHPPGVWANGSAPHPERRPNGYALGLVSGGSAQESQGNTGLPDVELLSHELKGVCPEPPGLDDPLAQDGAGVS

[19] = test system: Rattus norvegicus; experiment: Antinociceptive activity in Complete Freund's adjuvant-induced inflammatory pain CD rat model assessed as mechanical hypersensitivity measured as weight bearing capacity at 5 mg/kg, po measured up to 15 mins relative to control; type: functional, organism-based; parameters: dose 5 mg/kg
[20] = target: Transient receptor potential cation channel subfamily V member 1 (Homo sapiens, UniProt Q8NER1); experiment: Binding affinity to TRPV1 (unknown origin)
Sequence of Transient receptor potential cation channel subfamily V member 1 (Q8NER1 whole entry): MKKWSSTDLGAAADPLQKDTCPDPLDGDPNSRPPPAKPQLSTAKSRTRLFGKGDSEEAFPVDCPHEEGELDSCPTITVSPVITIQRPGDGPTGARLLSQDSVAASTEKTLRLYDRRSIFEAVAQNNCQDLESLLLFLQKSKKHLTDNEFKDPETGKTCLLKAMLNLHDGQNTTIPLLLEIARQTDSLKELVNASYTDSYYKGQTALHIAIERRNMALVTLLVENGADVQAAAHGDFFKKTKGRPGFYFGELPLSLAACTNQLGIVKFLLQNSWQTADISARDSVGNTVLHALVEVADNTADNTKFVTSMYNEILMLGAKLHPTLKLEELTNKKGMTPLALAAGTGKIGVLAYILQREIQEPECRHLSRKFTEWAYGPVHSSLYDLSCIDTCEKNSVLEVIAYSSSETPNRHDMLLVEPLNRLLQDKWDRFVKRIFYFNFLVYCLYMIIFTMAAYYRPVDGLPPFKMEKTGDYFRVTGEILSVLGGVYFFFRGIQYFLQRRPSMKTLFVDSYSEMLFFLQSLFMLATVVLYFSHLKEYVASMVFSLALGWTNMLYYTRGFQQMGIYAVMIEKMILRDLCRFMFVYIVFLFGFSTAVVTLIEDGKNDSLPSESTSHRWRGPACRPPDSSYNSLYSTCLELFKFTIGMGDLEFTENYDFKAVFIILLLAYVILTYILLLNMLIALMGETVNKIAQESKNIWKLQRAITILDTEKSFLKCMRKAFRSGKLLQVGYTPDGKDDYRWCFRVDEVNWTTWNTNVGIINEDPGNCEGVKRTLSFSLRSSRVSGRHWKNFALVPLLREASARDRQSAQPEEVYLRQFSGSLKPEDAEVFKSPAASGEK

[21] = Binding affinity to strychnine-insensitive glycine receptor (unknown origin); parameters: species or system Homo sapiens
[22] = test system: Rattus norvegicus; experiment: Antinociceptive activity in Complete Freund's adjuvant-induced inflammatory pain CD rat model assessed as mechanical hypersensitivity measured as weight bearing capacity at 5 mg/kg, po administered before challenge relative to control; type: functional
[23] = test system: Mus musculus; experiment: Antinociceptive activity in sciatic nerve chronic constriction injury CD1 mouse model assessed as paw withdrawal threshold at 1.3 umol/kg administered intrathecally measured at 180 mins (reference value: 0.21 to 0.30 g); type: functional
[24] = Half life in CD1 mouse at 5 mg/kg, po; type: ADME, organism-based; parameters: dose 5 mg/kg, route oral; conditions: in vivo
[25] = test system: Mus musculus; experiment: Antinociceptive activity in sciatic nerve chronic constriction injury CD1 mouse model assessed as paw withdrawal threshold at 3.5 umol/kg, po measured at 120 mins (reference value: 0.26 to 0.37 g); type: functional
[26] = Tmax in CD1 mouse at 5 mg/kg, po; type: ADME, organism-based; parameters: dose 5 mg/kg, route oral; conditions: in vivo
[27] = Cmax in CD1 mouse at 5 mg/kg, po; type: ADME, organism-based; parameters: dose 5 mg/kg, route oral; conditions: in vivo
[28] = test system: Rattus norvegicus; experiment: Antinociceptive activity in Complete Freund's adjuvant-induced inflammatory pain CD rat model assessed as mechanical hypersensitivity measured as weight bearing capacity at 5 mg/kg, po measured after 15 to 120 mins relative to indomethacin; type: functional
[29] = Elimination rate constant in CD1 mouse at 5 mg/kg, po; type: ADME, organism-based; parameters: dose 5 mg/kg, route oral; conditions: in vivo
[30] = Binding affinity to sigma2 receptor (unknown origin); parameters: species or system Homo sapiens
[31] = test system: Rattus norvegicus; experiment: Antinociceptive activity in Complete Freund's adjuvant-induced inflammatory pain CD rat model assessed as mechanical hypersensitivity measured as weight bearing capacity at 5 mg/kg, po administered 24 hrs post challenge relative to control; type: functional
[32] = test system: Mus musculus; experiment: Antinociceptive activity in sciatic nerve chronic constriction injury CD1 mouse model assessed as paw withdrawal threshold at 1.3 umol/kg administered intrathecally measured at 30 mins (reference value: 0.21 to 0.30 g); type: functional
[33] = target: T1, Adenosine receptor A3 (Homo sapiens, UniProt P0DMS8); experiment: Binding affinity to adenosine A3 receptor (unknown origin)
T1 sequence (P0DMS8 whole entry): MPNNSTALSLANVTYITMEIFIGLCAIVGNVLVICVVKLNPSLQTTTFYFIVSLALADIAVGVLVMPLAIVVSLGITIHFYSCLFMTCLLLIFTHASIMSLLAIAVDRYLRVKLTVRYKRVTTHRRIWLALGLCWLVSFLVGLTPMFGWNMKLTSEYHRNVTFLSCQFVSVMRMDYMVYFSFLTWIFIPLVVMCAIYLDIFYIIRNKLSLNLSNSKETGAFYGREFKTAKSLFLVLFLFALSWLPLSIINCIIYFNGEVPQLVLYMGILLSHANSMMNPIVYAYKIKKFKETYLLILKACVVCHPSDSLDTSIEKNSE

[34] = Binding affinity to […] AMPA receptor (unknown origin); parameters: species or system Homo sapiens
[35] = target: Somatostatin receptor type 4 (Homo sapiens, UniProt P31391); experiment: Binding affinity to SST4 receptor (unknown origin)
Sequence of Somatostatin receptor type 4 (P31391 whole entry): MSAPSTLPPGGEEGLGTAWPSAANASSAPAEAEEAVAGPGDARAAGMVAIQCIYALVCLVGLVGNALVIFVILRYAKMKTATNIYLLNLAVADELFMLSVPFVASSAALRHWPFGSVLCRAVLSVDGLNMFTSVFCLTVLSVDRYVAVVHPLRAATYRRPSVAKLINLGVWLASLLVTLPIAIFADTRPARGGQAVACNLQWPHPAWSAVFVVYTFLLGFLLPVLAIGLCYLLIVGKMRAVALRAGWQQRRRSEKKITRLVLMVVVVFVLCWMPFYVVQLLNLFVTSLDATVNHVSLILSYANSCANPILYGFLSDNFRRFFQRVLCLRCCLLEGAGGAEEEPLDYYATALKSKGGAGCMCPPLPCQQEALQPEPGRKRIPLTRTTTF

[36] = test system: Mus musculus; experiment: Antinociceptive activity in sciatic nerve chronic constriction injury CD1 mouse model assessed as paw withdrawal threshold at 3.5 umol/kg, po measured at 60 mins (reference value: 0.26 to 0.37 g); type: functional
[37] = test system: Rattus norvegicus; experiment: Antinociceptive activity in spinal nerve ligation CD rat model of neuropathic pain assessed as inhibition of mechanical allodynia measured as time required for maximal effect at 5 mg/kg, po; type: functional
[38] = test system: Rattus norvegicus; experiment: Antinociceptive activity in spinal nerve ligation CD rat model of neuropathic pain assessed as inhibition of mechanical allodynia measured as paw withdrawal threshold at 5 mg/kg, po after 15 to 180 mins relative to pregabalin; type: functional
[39] = test system: Mus musculus; experiment: Antinociceptive activity in sciatic nerve chronic constriction injury CD1 mouse model assessed as paw withdrawal threshold at 1.3 umol/kg administered intrathecally measured at 120 mins (reference value: 0.21 to 0.30 g); type: functional
[40] = target: T2, Adenosine receptor A1 (Homo sapiens, UniProt P30542); experiment: Binding affinity to adenosine A1 receptor (unknown origin)
T2 sequence (P30542 whole entry): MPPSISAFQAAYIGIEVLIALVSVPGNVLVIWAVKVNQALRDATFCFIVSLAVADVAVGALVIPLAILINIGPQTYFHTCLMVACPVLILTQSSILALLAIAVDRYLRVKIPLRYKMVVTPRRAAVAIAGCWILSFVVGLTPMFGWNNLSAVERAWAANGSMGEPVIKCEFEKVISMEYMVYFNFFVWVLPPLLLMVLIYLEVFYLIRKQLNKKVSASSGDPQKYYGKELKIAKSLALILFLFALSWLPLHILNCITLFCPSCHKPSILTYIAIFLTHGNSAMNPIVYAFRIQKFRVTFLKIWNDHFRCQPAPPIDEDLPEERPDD

[41] = target: Cannabinoid receptor 1 (Homo sapiens, UniProt P21554); experiment: Binding affinity to cannabinoid CB1 receptor (unknown origin)
Sequence of Cannabinoid receptor 1 (P21554 whole entry): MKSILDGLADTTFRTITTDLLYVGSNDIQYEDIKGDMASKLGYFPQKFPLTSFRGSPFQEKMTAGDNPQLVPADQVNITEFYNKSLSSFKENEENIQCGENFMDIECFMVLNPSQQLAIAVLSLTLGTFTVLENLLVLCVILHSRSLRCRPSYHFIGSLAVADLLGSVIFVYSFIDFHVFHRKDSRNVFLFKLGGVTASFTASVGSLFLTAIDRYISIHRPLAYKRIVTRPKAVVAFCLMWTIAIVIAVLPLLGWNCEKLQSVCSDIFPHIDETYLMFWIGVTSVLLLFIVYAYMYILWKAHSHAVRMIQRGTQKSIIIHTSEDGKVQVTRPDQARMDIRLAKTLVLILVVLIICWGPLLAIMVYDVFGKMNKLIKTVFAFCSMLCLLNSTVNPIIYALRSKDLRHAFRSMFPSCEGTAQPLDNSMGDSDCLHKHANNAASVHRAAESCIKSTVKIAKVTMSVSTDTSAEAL

[42] = test system: Mus musculus; experiment: Antinociceptive activity in sciatic nerve chronic constriction injury CD1 mouse model assessed as paw withdrawal threshold at 3.5 umol/kg, po measured at 180 mins (reference value: 0.26 to 0.37 g); type: functional
[43] = target: Somatostatin receptor type 2 (Homo sapiens, UniProt P30874); experiment: Binding affinity to SST2 receptor (unknown origin)
Sequence of Somatostatin receptor type 2 (P30874 whole entry): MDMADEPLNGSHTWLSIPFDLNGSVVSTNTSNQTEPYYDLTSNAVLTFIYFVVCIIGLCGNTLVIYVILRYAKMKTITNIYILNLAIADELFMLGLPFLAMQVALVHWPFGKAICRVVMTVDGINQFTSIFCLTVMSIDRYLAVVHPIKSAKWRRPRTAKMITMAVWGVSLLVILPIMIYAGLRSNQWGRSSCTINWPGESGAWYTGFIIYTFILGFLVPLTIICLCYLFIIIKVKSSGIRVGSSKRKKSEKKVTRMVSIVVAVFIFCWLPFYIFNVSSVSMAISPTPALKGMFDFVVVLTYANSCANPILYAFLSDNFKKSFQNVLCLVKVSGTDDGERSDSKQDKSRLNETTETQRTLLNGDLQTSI

[44] = target: Cannabinoid receptor 2 (Homo sapiens, UniProt P34972); experiment: Binding affinity to cannabinoid CB2 receptor (unknown origin)
Sequence of Cannabinoid receptor 2 (P34972 whole entry): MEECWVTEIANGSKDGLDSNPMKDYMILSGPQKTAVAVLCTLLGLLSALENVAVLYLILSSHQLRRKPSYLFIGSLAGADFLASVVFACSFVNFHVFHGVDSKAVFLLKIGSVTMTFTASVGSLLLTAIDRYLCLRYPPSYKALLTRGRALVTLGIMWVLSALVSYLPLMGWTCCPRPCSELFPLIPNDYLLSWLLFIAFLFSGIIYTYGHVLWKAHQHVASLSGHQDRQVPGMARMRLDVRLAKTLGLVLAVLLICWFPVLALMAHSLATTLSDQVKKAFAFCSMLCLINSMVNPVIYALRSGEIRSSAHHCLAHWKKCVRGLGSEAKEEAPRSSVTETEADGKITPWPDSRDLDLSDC

[45] = test system: Rattus norvegicus; experiment: Antinociceptive activity in spinal nerve ligation CD rat model of neuropathic pain assessed as inhibition of mechanical allodynia at 39 mg/kg, po after 15 to 180 mins; type: functional
[46] = Binding affinity to strychnine-sensitive glycine receptor (unknown origin); parameters: species or system Homo sapiens
[47] = test system: Rattus norvegicus; experiment: Antinociceptive activity in Complete Freund's adjuvant-induced inflammatory pain CD rat model assessed as mechanical hypersensitivity measured as weight bearing capacity at 5 mg/kg, po measured after 15 to 120 mins relative to control; type: functional
[48] = test system: Mus musculus; experiment: Antinociceptive activity in sciatic nerve chronic constriction injury CD1 mouse model assessed as paw withdrawal threshold at 1.3 umol/kg administered intrathecally measured at 300 mins (reference value: 0.21 to 0.30 g); type: functional
[49] = test system: Rattus norvegicus; experiment: Antinociceptive activity in spinal nerve ligation CD rat model of neuropathic pain assessed as inhibition of mechanical allodynia measured as time required for maximal effect at 39 mg/kg, po; type: functional
[50] = test system: Rattus norvegicus; experiment: Antinociceptive activity in spinal nerve ligation CD rat model of neuropathic pain assessed as inhibition of mechanical allodynia measured as paw withdrawal threshold at 39 mg/kg, po up to 15 mins; type: functional, organism-based; parameters: dose 39 mg/kg

In the case of `COc1ccc2c(c1)c(CC(=O)O)c(C)n2C(=O)c1ccc(Cl)cc1` [INDOMETHACIN], the Cmax [1] was 10400 ng/mL, the AUC(0-t) [2] was 93800 ng·h/mL and the Activity [3] was “Active”. It also gave a Tmax [4] of 0.75 h, an AUC(0-inf) [5] of 97100 ng·h/mL and a half-life [6] of 5.99 h. For the same compound, the Time [7] was 60 min, the k el [8] was 3.33e-05 s⁻¹ and the Activity [9] was “Active”. The Activity [10] was “Toxic”.
In the case of `CN1CCc2c(c3cccc4c3n2CCc2ccccc2-4)C1`, the AUC(0-t) [11] was 211 ng·h/mL, the Activity [12] was 0.75 g and the Activity [13] was 0.88 g. For the same compound, the Activity [14] was “Non-toxic”, the Time [15] was 60 min and the Activity [16] was 0.21 g. The AUC(0-inf) [17] was 216 ng·h/mL, the pKi [18] was less than 5.00 and the Activity [19] was “Active”. The Ki [20] was “Not Active”, the pKi [21] was less than 5.00 and the Activity [22] was 50.8%. It also gave an Activity [23] of 0.41 g, a half-life [24] of 1.86 h and an Activity [25] of 0.57 g. The Tmax [26] was 0.25 h, the Cmax [27] was 126 ng/mL and the “fold change (FC)” value [28] was 5. For the same compound, the k el [29] was 0.000103 s⁻¹, the pKi [30] was 6.51 and the Activity [31] was 35.2%. It also gave an Activity [32] of 0.86 g, a pKi [33] of less than 5.00 and a pKi [34] of less than 5.00. For the same compound, the pKi [35] was less than 5.00, the Activity [36] was 1.09 g and the Time [37] was 30 min. The “fold change (FC)” value [38] was 7, the Activity [39] was 0.67 g and the pKi [40] was less than 5.00. It also gave a pKi [41] of less than 5.00, an Activity [42] of 0.4 g and a pKi [43] of less than 5.00. For the same compound, the pKi [44] was less than 5.00, the inhibition in vivo at 39 mg/kg [45] was 50% and the pKi [46] was less than 5.00. It also gave an Activity [47] of 90% and an Activity [48] of 0.21 g.
For `CC(C)C[C@H](CN)CC(=O)O` [PREGABALIN], the Time [49] was 120 min and the inhibition [50] was “Active”.
